Reference: the NIST ThermoML archive (doi:10.1021/je025657+)
“And” between values parts separate entries of the source, which are not always exact repeats. Identical values can stand only once.

COC(F)(F)C(F)(F)F [methyl pentafluoroethyl ether]
Conditions | mass density [kg/m3]
330 K, 2009.1 kPa, Liquid | 1174.81
330 K, 2033.5 kPa, Liquid | 1173.24
330 K, 2499.3 kPa, Liquid | 1178.46
330 K, 3014.1 kPa, Liquid | 1182.15
330 K, 3040.4 kPa, Liquid | 1180.5
330 K, 3527.6 kPa, Liquid | 1185.73
330 K, 4007.5 kPa, Liquid | 1188.95
330 K, 4054 kPa, Liquid | 1187.37
330 K, 4522.8 kPa, Liquid | 1192.32
330 K, 5044.3 kPa, Liquid | 1195.65
330 K, 5095.2 kPa, Liquid | 1194.02
330 K, 5526.8 kPa, Liquid | 1198.64
330 K, 6004.2 kPa, Liquid | 1201.54
330 K, 6121.5 kPa, Liquid | 1200.18
330 K, 6544.9 kPa, Liquid | 1204.73
330 K, 7006.4 kPa, Liquid | 1207.37
330 K, 7184 kPa, Liquid | 1206.23
340 K, 72.2 kPa, Gas | 3.93
340 K, 97.1 kPa, Gas | 5.22
340 K, 106 kPa, Gas | 5.76
340 K, 154.8 kPa, Gas | 8.59
340 K, 198.1 kPa, Gas | 11.09
340 K, 224.8 kPa, Gas | 12.57
340 K, 295.9 kPa, Gas | 17.05
340 K, 323.2 kPa, Gas | 18.7
340 K, 396.6 kPa, Gas | 23.61
340 K, 495.8 kPa, Gas | 30.46
340 K, 596 kPa, Gas | 38.08
340 K, 597.2 kPa, Gas | 38.04
340 K, 707 kPa, Liquid | 1124.67
340 K, 722.8 kPa, Liquid | 1124.82
340 K, 1026.7 kPa, Liquid | 1129.54
340 K, 1053.7 kPa, Liquid | 1128.14
340 K, 1524.7 kPa, Liquid | 1134.41
340 K, 1999.2 kPa, Liquid | 1137.11
340 K, 2020.3 kPa, Liquid | 1139.04
340 K, 2516 kPa, Liquid | 1143.49
340 K, 3002.4 kPa, Liquid | 1147.7
340 K, 3017 kPa, Liquid | 1145.96
340 K, 3529.7 kPa, Liquid | 1152.07
340 K, 3993.9 kPa, Liquid | 1155.78
340 K, 4072.4 kPa, Liquid | 1154.47
340 K, 4525.8 kPa, Liquid | 1159.9
340 K, 5046.6 kPa, Liquid | 1163.8
340 K, 5093 kPa, Liquid | 1162.13
340 K, 5487.3 kPa, Liquid | 1166.99
340 K, 6030.7 kPa, Liquid | 1170.83
340 K, 6115.2 kPa, Liquid | 1169.4
340 K, 6527.2 kPa, Liquid | 1174.25
340 K, 7001.9 kPa, Liquid | 1177.33
340 K, 7160.8 kPa, Liquid | 1176.36
350 K, 71.4 kPa, Gas | 3.8
350 K, 104.7 kPa, Gas | 5.6
350 K, 129.8 kPa, Gas | 6.86
350 K, 152.8 kPa, Gas | 8.19
350 K, 222 kPa, Gas | 12.14
350 K, 275 kPa, Gas | 15.14
350 K, 319.9 kPa, Gas | 17.93
350 K, 395 kPa, Gas | 22.4
350 K, 455.2 kPa, Gas | 26.4
350 K, 560.7 kPa, Gas | 33.51
350 K, 777.4 kPa, Gas | 50.08
350 K, 799.2 kPa, Gas | 52.12
350 K, 902.4 kPa, Liquid | 1084.92
350 K, 933 kPa, Liquid | 1085.29
350 K, 1008.2 kPa, Liquid | 1087.64
350 K, 1049.9 kPa, Liquid | 1086.78
350 K, 1470.3 kPa, Liquid | 1093.45
350 K, 2013.5 kPa, Liquid | 1099.88
350 K, 2056.5 kPa, Liquid | 1098.92
350 K, 2517.3 kPa, Liquid | 1105.5
350 K, 3024.3 kPa, Liquid | 1110.87
350 K, 3061.7 kPa, Liquid | 1109.59
350 K, 3474.5 kPa, Liquid | 1115.43
350 K, 4005.1 kPa, Liquid | 1120.6
350 K, 4100.2 kPa, Liquid | 1119.85
350 K, 4481.5 kPa, Liquid | 1124.97
350 K, 4979.5 kPa, Liquid | 1129.41
350 K, 5116.8 kPa, Liquid | 1128.93
350 K, 5469.1 kPa, Liquid | 1133.62
350 K, 5973.9 kPa, Liquid | 1137.8
350 K, 6125.5 kPa, Liquid | 1137.3
350 K, 6531.4 kPa, Liquid | 1142.27
350 K, 6996.6 kPa, Liquid | 1145.86
350 K, 7196.9 kPa, Liquid | 1145.6
360 K, 45.3 kPa, Gas | 2.31
360 K, 98.2 kPa, Gas | 5.11
360 K, 137.2 kPa, Gas | 7.1
360 K, 200.1 kPa, Gas | 10.49
360 K, 231.4 kPa, Gas | 12.2
360 K, 289.8 kPa, Gas | 15.49
360 K, 334.5 kPa, Gas | 18.07
360 K, 415.3 kPa, Gas | 22.84
360 K, 477.9 kPa, Gas | 26.77
360 K, 586.1 kPa, Gas | 33.71
360 K, 670.7 kPa, Gas | 39.54
360 K, 807.9 kPa, Gas | 49.64
360 K, 915.4 kPa, Gas | 58.53
360 K, 990.4 kPa, Gas | 65.14
360 K, 1139.7 kPa, Liquid | 1041.29
360 K, 1228 kPa, Liquid | 1042.77
360 K, 1529.8 kPa, Liquid | 1049.05

mass density
Conditions | 330 K | 340 K | 350 K
Gas | – | 47.9 kg/m3 | 61.38 kg/m3
Liquid | 1161.46 kg/m3 and 1163.08 kg/m3 | 1124.55 kg/m3 and 1126.1 kg/m3 and 1126.12 kg/m3 | 1084.74 kg/m3 and 1086.06 kg/m3
